A value given as a limit tells only on which side of the number the result lay.

By melting point is commonly meant the temperature, or range, at which the solid turns liquid. In turn, `CC(C)NC(=O)Nc1ccc2c(c1Cl)C(c1ccccc1F)=NCC(=O)N2C` yielded a melting point of 130 to 140 °C. In turn, `O=C(Cn1ccnc1)N1CCC(Oc2c(F)c(F)c(F)c(F)c2F)CC1` had a melting point of 95 to 96 °C.

`Cn1cnc2c1c(=O)n(CCCBr)c(=O)n2C` gave a melting point of 142 to 144 °C. To `COc1cc(Cl)cc2nc(S(=O)(=O)Nc3c(Cl)cccc3Cl)nn12` belongs 232 to 234 °C. The figure for `c1ccc(-c2cc3cccc(CSCCN4CCCCC4)c3o2)cc1` is 64.5 to 65.5 °C. The figure for `Cc1cccc(C2(c3ccc(F)c(-c4ccc(NC(=O)NN5CCOCC5)cc4)c3)CNC(C(C)C)=N2)n1` (centres undefined) is 141 to 143 °C; for `C=CC[C@@H]1CCC(=O)C[C@H]1c1ccc(OCc2ccccc2)cc1OCc1ccccc1` (relative stereo) it is 104 to 106 °C; for `COC(=O)C[C@H]1COS(=O)(=O)N1C(=O)OCC1c2ccccc2-c2ccccc21` it is 138 to 140 °C.

Regarding `Cn1c(-c2ccccc2Sc2nc3ccccc3[nH]2)nc2ccccc21`, the melting point was 246 to 247 °C. Molecule `Oc1ccc(-c2nn(-c3cccc(F)c3)c3cc(O)ccc23)c(O)c1` registered a melting point greater than 200 °C. On to `O=C1COCC(c2ccccc2)N1C(=O)Oc1ccc([N+](=O)[O-])cc1` (centres undefined), for which the melting point was in the range of 105 to 109 °C. `CCOC(=O)C(=CNc1sc(-c2ccc(OC)cc2)c(C)c1C(=O)O)C(=O)OCC` registered a melting point of 184 to 187 °C. The figure for `CCC1SC(=O)NN=C1c1ccc(OC(F)F)c(OC)c1` (centres undefined) is 97 °C; for `CC(=O)OC1CCC2(C)C3=C(CCC2C1)C1CCC(C(C)=O)C1(C)CC3=O` (centres undefined) it is 169 to 172 °C. Take `CN(C)CCn1c(=O)c2cc([N+](=O)[O-])ccc2c2cnc3cc4c(cc3c21)OCO4`: the melting point was 204 to 205 °C. Regarding `COc1ccc(Cl)cc1C(=O)NCCc1ccc(-c2ccc(S(C)(=O)=O)cc2)c(S(N)(=O)=O)c1`, the melting point came out at 114 °C.

`O=C(Nc1ccc(C(F)(F)F)cc1)N1CC2CSc3cc(Cl)ccc3C2=N1` (centres undefined) showed a melting point of 188 to 192 °C. As to `Cc1nc2ccc(Cl)nn2c1C(=O)c1ccc(Cl)cc1F`, the melting point came out at 160 °C. The figure for `CCOC(=O)CN1CC2CCC(=O)N2C1=O` (centres undefined) is 99 to 101 °C; for `Nc1cc(-c2nc3ccccn3c2Br)c(F)cc1F` it is 137 °C; for `CC(=O)Nc1ccc(C=CC2=NNC(=O)CC2C)cc1` (centres undefined) it is 206 to 207 °C. For the molecule `Nc1ccc2c3c(cccc13)C(=O)N2`, the melting point lay in the range of 240 to 242 °C.

Molecule `CC1(CNC(=O)OCc2ccc(Cl)cc2)Cn2cc([N+](=O)[O-])nc2O1` (centres undefined) showed a melting point of 221 to 222 °C. Consider `Cc1nc(C#Cc2cncc(CO)c2)cs1`, for which the melting point was 98 to 99 °C. Consider `CCCCOC(=O)OCN1C(=O)CN(CCN2CC(=O)N(COC(=O)OCCCC)C(=O)C2)CC1=O`, for which the melting point was 68 to 71 °C. In the case of `Cc1cccc(C(=O)Nc2c[nH]nc2C(=O)NCC(C)(C)C#N)n1`, the melting point was 250 to 251 °C. With `N#Cc1cc(-c2nc3cncnc3s2)ccc1Oc1ccc(O)cc1`, the melting point is greater than 250 °C. The molecule `COc1cccc2c1nc(C(F)F)n2-c1nc(N2CCOCC2)nc(N2CCC(NS(=O)(=O)C(F)(F)F)CC2)n1` came in with a melting point of 282 to 285 °C. For `O=c1[nH]cc(F)c(=S)[nH]1`, the melting point was 254 to 255 °C. In the case of `O=C1c2ccccc2C(=O)N1Cc1ccc(/C=C/C(c2cc(Cl)c(Cl)c(Cl)c2)C(F)(F)F)c2ccccc12` (centres undefined), the melting point lay within 158 to 160 °C. `Nc1ccc(C(=O)NO)c(O)c1` came in with a melting point of 180 to 181 °C. The figure for `C=C(C)C(=O)OC1c2nccnc2C(=O)N1c1ccc2ccc(Cl)nc2n1` (centres undefined) is 255 °C. `COc1cc(Nc2nccc(-c3ccc(NCCCNC(C)C)nc3)n2)cc(OC)c1OC` yielded a melting point of 124 to 125 °C.

On to `CN(C)Cc1ccc(CSCCNC(=C[N+](=O)[O-])NCCCCCCCCCCCCNC(=C[N+](=O)[O-])NCCSCc2ccc(CN(C)C)o2)o1`, for which the melting point lay within 74 to 76 °C.
